Laboratory results published in PubChem BioAssay (NCI).
Values joined by “and” are separate entries in the source; they are usually repeats but may differ in a detail not shown here. Equal entries are not always repeated.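 Cells were grown in 96-well plates and exposed to each compound for 48 hours at five concentrations; endpoints were interpolated linearly between bracketing concentrations, or set to the highest concentration if not reached. GI50 = concentration required for 50% inhibition of growth. The concentration for full growth arrest is given as TGI.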

These compounds were tested on MDA-MB-468 breast (assay: NCI-60 cell line screen, 48 h).
For `O=C1C(Cl)=C(Oc2ccccc2)C(=O)c2ccccc21`, the GI50 was 1930 nM and the TGI was 3.75 µM.
In the case of `O=C(CCl)Nc1ccccc1SCc1cc(Cl)cc2c1OCOC2`, the GI50 was 1930 nM and the TGI was 4.5 µM.
In the case of `Clc1ccc(N2COOC3(OOC2)C2CC4CC(C2)CC3C4)cc1`, the GI50 was 5800 nM and the TGI was greater than 67.8 µM.
`O=C(CSc1nc2ccc([N+](=O)[O-])cc2[nH]1)Nc1cccc(C(F)(F)F)c1` showed a GI50 of 964 nM and a TGI of 4.71 µM.
`COc1c(O)cc2oc3cc(O)c(CC=C(C)C)c(O)c3c(=O)c2c1C/C=C(\C)CCC=C(C)C` gave a GI50 of 7160 nM and a TGI of 12.5 µM.
Work on `COc1ccc(/C=C/C(=O)/C=C(/C=C/c2ccc(OC)c(OC)c2)OB(F)F)cc1OC` yielded a GI50 of 578 nM and a TGI of 2.89 µM.
`C[C@@H](Oc1cc(-c2cnn(C3CCNCC3)c2)cnc1N)c1c(Cl)ccc(F)c1Cl` was tested, and the GI50 was 1060 nM and the TGI was 3.72 µM.
`O=c1oc2ccccc2c(Cl)c1Cl` was tested, and the GI50 was 1850 nM and the TGI was 4.32 µM.
For `OCc1ccc(N(Cc2ccc(F)cc2)C2CCC2)cc1Cl`, the GI50 was 17.6 nM and the TGI was 0.0464 µM.
`O=P(Oc1ccccc1)(Oc1ccccc1)C(O)c1ccccc1` (stereo not given) was tested, and the GI50 was 35000 nM and the TGI was greater than 100 µM.
Work on `COc1cccc(-c2nc(-c3ccc(NS(=O)(=O)c4ccccc4)cc3)[nH]c2-c2ccnc(Br)c2)c1` yielded a GI50 of 1980 nM and a TGI of 5.23 µM.
`COc1ccc(-n2c(-c3ccc(NC(=O)CCCl)cc3)nnc2-c2cc(OC)c(OC)c(OC)c2)cc1` showed a GI50 of 2080 nM and a TGI of 5.68 µM.
For `O=C1NC(=O)[C@@H](c2cn3c4c(cccc24)CCC3)[C@@H]1c1c[nH]c2ccccc12`, the GI50 was 306 nM and 260 nM and the TGI was > 10 µM and 3.81 µM.
`C=C1C(=O)O[C@H]2[C@H]1CC/C(COC(=O)/C=C/c1cccnc1)=C\CC[C@@]1(C)O[C@@H]21` showed a GI50 of 831 nM and a TGI of 4.3 µM.
Compound `O=C(Nc1cccc(NS(=O)(=O)c2ccc(F)cc2)c1)c1ccc(-c2ccccc2)cc1` has a GI50 of 2180 nM and a TGI of 9.56 µM.
For `COc1cc(-c2nnc(SCc3ccc(O)c4ncccc34)n2-c2ccccc2)cc(OC)c1OC`, the GI50 was 251 nM and the TGI was 2.53 µM.
`Cn1cc(-c2nc(-c3c[nH]c4ncccc34)cs2)c2cc(Cl)ccc21` was tested, and the GI50 was 316 nM and the TGI was 2.34 µM.
`Nc1nc(N)c2c(n1)NC(c1ccc(F)cc1)CC(c1ccc(Nc3nc(NCCO)nc(Nc4ccc(Cl)cc4)n3)cc1)=N2` (stereo not given) showed a GI50 of 1480 nM and a TGI of 3.15 µM.
Compound `c1ccc2c(NCCCn3ccnc3)c3oc4ccccc4c3nc2c1` has a GI50 of 1660 nM and a TGI of 3.42 µM.
Compound `O=C(Nc1ncc([N+](=O)[O-])s1)c1cccc([N+](=O)[O-])c1` has a GI50 of 3420 nM and a TGI of 38.7 µM.
In the case of `COC(=O)/C=C1\SC(=Nc2ccc(C(F)(F)F)cc2)N(CCc2c[nH]c3ccccc23)C1=O`, the GI50 was 2080 nM and the TGI was 4.05 µM.
`Nc1nc(-c2cccc([N+](=O)[O-])c2)c(N=Nc2ccccc2[N+](=O)[O-])s1` showed a GI50 of 2700 nM and a TGI of 26.2 µM.
In the case of `CS(=O)(=O)c1ccc(Oc2nccc(-c3c(-c4ccc(F)cc4)ncn3C3CCNCC3)n2)cc1`, the GI50 was 19100 nM and the TGI was greater than 25 µM.
`COc1ccc(-c2nc3sccn3c2/C=C/C(=O)c2cc(OC)c(OC)c(OC)c2)cc1OC` showed a GI50 of 2150 nM and a TGI of 5.02 µM.
`CCOC(=O)Oc1c(OC)cc(C(=O)c2ccc(OC)c(OC(=O)CCl)c2OC)cc1OC` was tested, and the GI50 was 2490 nM and the TGI was greater than 100 µM.
Compound `Clc1ccc(Nc2ccnc(NCCNc3ccnc4cc(Cl)ccc34)n2)cc1` has a GI50 of 1060 nM and a TGI of 2.34 µM.
In the case of `Cc1ccc2c(/C=C/C(=O)c3cc(CN4CCOCC4)c(O)c4nc(C)ccc34)cc(CN3CCOCC3)c(O)c2n1`, the GI50 was 434 nM and the TGI was 2.02 µM.
Compound `O=C1c2[nH]cc(CN[C@@H]3CCCN3)c2C(=O)c2c1c(O)c1ccccc1c2O` has a GI50 of 1180 nM and a TGI of 2.65 µM.
`Cc1ccc(C)c(-n2c(-c3ccc(Br)cc3)csc2=NC(=O)c2ccccc2F)c1` gave a GI50 greater than 100000 nM and a TGI greater than 100 µM.
`COc1cc(-c2cc(C(=O)Nc3nc4ccccc4s3)nc3cc(-c4ccccc4)nn23)cc(OC)c1OC` showed a GI50 of 13900 nM and a TGI of 38 µM.
`COc1ccc(/C=C\c2cc(OC)c(OC)c(OC)c2)cc1NC(=O)[C@@H](N)CO` was tested, and the GI50 was less than 17.8 nM and the TGI was 1.27 µM.
`COc1ccc(C(=O)c2cc(OC)c(OC)c(OC)c2)cc1/C=C/C(=O)c1ccc(O)cc1` gave a GI50 of 2070 nM and a TGI of 8.09 µM.
With `CCN(Cc1ccc(F)cc1F)c1ccc(CO)c(Cl)c1` the GI50 was 15.9 nM and the TGI was 0.0395 µM.
`Cc1c(C(=O)CCl)c(=O)n(-c2ccccc2)n1C` showed a GI50 of 675 nM and a TGI of 3.08 µM.
With `O=S(=O)(Nc1cccc2ccccc12)c1ccc(-c2cnc(C3CC3)o2)cc1` the GI50 was 43.2 nM and the TGI was 12.8 µM.
In the case of `CCNCCNc1cc(-c2ccc(Cl)cc2)c(C#N)c2nc3ccccc3n12`, the GI50 was 642 nM and the TGI was 2.09 µM.
Compound `CCN(CC)c1ccc2[nH]c3c(C(N)=O)cc(=O)c(=O)c=3oc2c1` has a GI50 of 1850 nM and a TGI of 4.75 µM.
Compound `CC(C)(C)[Si](C)(C)OC1[C@@H](O[Si](C)(C)C(C)(C)C)[C@@H](CNC(=O)NC(=O)NC(=O)CI)O[C@H]1n1cnc2c(NC(=O)Nc3ccccc3)ncnc21` (stereo not given in full) has a GI50 of 334 nM and a TGI of 2.06 µM.
`c1ccc(Oc2c3ccccc3nc3ccccc23)cc1` was tested, and the GI50 was 1350 nM and the TGI was 4.62 µM.
Work on `COc1ccc(/C=C(\C#N)n2nnc3cc(Cl)ccc32)cc1` yielded a GI50 of 258 nM and a TGI of 0.941 µM.
